Reference: ChEMBL document CHEMBL4800727 (2021)
pKi: −log10 of the molar value. One block for each compound: values may come before it. The source made the active and inactive calls. The rule behind the calls is not given here.

How the values were obtained:
[1] = target: Beta-3 adrenergic receptor (Homo sapiens) (UniProt P13945); details: Compound concentration 10.0 uM
[2] = target: D(2) dopamine receptor (Homo sapiens) (UniProt P14416); details: Compound concentration 10.0 uM
Rattus norvegicus = organism: Rattus norvegicus; test: rNa channel Cerep panel; details: Compound concentration 10.0 uM
[3] = target: T1, 3',5'-cyclic-AMP phosphodiesterase 4D (Homo sapiens, UniProt Q08499); test: hPDE4D2 Cerep panel; details: Compound concentration 10.0 uM
T1 sequence (Q08499 whole entry): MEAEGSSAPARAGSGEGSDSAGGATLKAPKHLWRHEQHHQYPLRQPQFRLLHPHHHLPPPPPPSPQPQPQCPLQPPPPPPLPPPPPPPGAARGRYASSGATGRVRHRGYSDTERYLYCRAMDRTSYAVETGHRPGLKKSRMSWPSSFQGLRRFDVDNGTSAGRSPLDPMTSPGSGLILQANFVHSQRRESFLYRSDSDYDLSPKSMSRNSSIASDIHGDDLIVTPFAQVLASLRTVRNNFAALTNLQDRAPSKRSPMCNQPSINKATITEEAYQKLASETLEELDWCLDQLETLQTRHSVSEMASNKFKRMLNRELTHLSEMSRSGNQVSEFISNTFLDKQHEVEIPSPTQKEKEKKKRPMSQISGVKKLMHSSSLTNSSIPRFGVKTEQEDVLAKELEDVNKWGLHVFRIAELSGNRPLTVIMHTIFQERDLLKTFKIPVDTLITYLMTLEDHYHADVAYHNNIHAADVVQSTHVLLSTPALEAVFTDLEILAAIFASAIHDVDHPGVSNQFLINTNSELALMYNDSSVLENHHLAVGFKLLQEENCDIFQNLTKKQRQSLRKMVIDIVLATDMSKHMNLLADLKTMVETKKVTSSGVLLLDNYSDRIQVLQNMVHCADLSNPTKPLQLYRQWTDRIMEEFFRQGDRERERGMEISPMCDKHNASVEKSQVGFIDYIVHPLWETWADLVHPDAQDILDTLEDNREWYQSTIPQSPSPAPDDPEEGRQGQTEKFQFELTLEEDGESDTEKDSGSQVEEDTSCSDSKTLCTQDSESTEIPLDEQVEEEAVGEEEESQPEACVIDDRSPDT

[4] = target: Nociceptin receptor (Homo sapiens) (UniProt P41146); test: hORL1 Cerep panel; details: Compound concentration 10.0 uM
Sequence of Nociceptin receptor (Homo sapiens) (P41146 whole entry): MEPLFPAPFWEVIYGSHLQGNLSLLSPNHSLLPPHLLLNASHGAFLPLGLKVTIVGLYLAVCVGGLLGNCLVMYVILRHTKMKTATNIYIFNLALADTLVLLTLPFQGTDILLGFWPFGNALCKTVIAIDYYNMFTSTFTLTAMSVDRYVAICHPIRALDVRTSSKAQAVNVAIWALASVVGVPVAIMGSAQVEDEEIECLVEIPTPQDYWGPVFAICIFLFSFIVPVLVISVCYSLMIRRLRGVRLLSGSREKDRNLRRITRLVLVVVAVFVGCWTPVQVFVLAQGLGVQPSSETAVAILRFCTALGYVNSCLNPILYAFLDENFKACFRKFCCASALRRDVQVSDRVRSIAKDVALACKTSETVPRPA

[5] = target: Ephrin type-A receptor 4 (Homo sapiens) (UniProt P54764); test: EPH receptor A4 Millipore kinase panel; details: Compound concentration 10.0 uM
[6] = target: cAMP and cAMP-inhibited cGMP 3',5'-cyclic phosphodiesterase 10A (Mus musculus) (UniProt Q8CA95)
Sequence of cAMP and cAMP-inhibited cGMP 3',5'-cyclic phosphodiesterase 10A (Mus musculus) (Q8CA95 whole entry): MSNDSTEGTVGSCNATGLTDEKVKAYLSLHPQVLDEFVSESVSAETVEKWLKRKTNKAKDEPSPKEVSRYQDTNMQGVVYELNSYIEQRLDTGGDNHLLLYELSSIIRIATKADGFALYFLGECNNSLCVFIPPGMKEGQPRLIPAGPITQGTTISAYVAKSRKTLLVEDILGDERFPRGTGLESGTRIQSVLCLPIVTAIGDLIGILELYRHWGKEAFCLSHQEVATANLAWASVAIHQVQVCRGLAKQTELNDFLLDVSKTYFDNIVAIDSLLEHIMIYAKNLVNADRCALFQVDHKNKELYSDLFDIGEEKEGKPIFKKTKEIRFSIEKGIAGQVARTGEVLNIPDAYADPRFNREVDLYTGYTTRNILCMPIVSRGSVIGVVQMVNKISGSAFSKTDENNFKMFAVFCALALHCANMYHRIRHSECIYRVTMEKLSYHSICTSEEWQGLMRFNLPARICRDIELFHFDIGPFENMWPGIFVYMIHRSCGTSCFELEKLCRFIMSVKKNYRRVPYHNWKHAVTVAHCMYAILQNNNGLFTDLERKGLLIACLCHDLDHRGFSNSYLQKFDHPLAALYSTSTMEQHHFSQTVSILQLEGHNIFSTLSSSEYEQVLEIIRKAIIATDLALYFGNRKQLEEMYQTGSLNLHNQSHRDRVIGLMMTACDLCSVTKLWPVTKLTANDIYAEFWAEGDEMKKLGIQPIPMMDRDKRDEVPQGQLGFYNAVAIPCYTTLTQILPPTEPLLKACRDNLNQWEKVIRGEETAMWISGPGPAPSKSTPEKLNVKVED

[7] = target: Serine/threonine-protein kinase STK11 (Homo sapiens) (UniProt Q15831); test: serine/threonine kinase 11 Millipore kinase panel; details: Compound concentration 10.0 uM
[8] = target: D(1A) dopamine receptor (Homo sapiens) (UniProt P21728); test: hD1 Cerep panel; details: Compound concentration 10.0 uM
[9] = target: Serine/threonine-protein kinase DCLK2 (Homo sapiens) (UniProt Q8N568); test: doublecortin-like kinase 2 Millipore kinase panel; details: Compound concentration 10.0 uM
[10] = target: Mitogen-activated protein kinase 10 (Homo sapiens) (UniProt P53779); test: mitogen-activated protein kinase 10 Millipore kinase panel; details: Compound concentration 10.0 uM
Sequence of Mitogen-activated protein kinase 10 (Homo sapiens) (P53779 whole entry): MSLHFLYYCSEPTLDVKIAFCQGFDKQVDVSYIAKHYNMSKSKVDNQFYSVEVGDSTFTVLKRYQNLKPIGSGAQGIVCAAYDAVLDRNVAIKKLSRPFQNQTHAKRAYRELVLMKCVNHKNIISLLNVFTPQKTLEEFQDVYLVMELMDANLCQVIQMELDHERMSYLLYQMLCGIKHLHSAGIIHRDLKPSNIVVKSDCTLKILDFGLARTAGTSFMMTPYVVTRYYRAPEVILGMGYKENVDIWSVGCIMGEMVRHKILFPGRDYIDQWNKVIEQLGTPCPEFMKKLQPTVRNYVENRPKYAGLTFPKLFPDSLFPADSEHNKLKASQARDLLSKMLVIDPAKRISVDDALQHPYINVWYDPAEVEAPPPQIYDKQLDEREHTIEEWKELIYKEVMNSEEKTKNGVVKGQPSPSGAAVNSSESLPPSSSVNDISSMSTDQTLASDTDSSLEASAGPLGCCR

[11] = target: Serine/threonine-protein kinase haspin (Homo sapiens) (UniProt Q8TF76); test: germ cell associated 2 (haspin) Millipore kinase panel; details: Compound concentration 10.0 uM
[12] = target: Serine/threonine-protein kinase Nek2 (Homo sapiens) (UniProt P51955); test: NIMA -related kinase 2 Millipore kinase panel; details: Compound concentration 10.0 uM
[13] = target: Fibroblast growth factor receptor 3 (Homo sapiens) (UniProt P22607); test: fibroblast growth factor receptor 3 Millipore kinase panel; details: Compound concentration 10.0 uM
[14] = target: T1, 3',5'-cyclic-AMP phosphodiesterase 4D; test: hPDE4D3 PDE scan
[15] = target: Endothelin-1 receptor (Homo sapiens) (UniProt P25101); test: hETA Cerep panel; details: Compound concentration 10.0 uM
[16] = target: Misshapen-like kinase 1 (Homo sapiens) (UniProt Q8N4C8); test: misshapen-like kinase 1 Millipore kinase panel; details: Compound concentration 10.0 uM
[17] = target: Focal adhesion kinase 1 (Homo sapiens) (UniProt Q05397); test: PTK2 protein tyrosine kinase 2 Millipore kinase panel; details: Compound concentration 10.0 uM
[18] = target: Serine/threonine-protein kinase D1 (Homo sapiens) (UniProt Q15139); test: protein kinase D1 Millipore kinase panel; details: Compound concentration 10.0 uM
Sequence of Serine/threonine-protein kinase D1 (Homo sapiens) (Q15139 whole entry): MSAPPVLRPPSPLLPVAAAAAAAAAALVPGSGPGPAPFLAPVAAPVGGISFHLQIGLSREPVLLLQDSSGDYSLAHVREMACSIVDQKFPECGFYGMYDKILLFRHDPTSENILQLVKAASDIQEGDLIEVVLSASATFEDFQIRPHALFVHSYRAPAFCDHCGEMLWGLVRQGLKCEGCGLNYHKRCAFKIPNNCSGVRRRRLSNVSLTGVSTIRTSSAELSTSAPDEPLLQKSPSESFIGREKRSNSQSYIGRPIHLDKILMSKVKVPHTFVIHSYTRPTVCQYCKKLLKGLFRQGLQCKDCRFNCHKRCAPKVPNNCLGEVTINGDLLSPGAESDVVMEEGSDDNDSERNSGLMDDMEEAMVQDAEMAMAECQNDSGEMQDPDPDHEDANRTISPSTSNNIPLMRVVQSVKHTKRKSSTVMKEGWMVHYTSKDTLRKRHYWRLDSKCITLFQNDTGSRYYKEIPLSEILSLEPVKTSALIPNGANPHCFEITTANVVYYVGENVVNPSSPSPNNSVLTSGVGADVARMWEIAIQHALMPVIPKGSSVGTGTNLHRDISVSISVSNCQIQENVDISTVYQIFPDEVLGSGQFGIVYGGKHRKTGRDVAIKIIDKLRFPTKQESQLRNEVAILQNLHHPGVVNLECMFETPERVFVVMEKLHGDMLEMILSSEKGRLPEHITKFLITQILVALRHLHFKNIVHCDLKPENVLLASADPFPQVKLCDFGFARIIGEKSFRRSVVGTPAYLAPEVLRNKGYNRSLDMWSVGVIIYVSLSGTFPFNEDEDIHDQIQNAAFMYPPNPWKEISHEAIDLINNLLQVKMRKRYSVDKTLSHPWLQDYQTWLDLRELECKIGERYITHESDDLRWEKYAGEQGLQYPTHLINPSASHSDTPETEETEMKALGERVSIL

[19] = target: Mu-type opioid receptor (Homo sapiens) (UniProt P35372); test: hOP3 Cerep panel; details: Compound concentration 10.0 uM
[20] = target: Receptor-type tyrosine-protein kinase FLT3 (Homo sapiens) (UniProt P36888); test: fms-related tyrosine kinase 3 Millipore kinase panel; details: Compound concentration 10.0 uM
[21] = target: MAP kinase-activated protein kinase 3 (Homo sapiens) (UniProt Q16644); test: mitogen-activated protein kinase-activated protein kinase 3 Millipore kinase panel; details: Compound concentration 10.0 uM
[22] = target: T2, 5-hydroxytryptamine receptor 1A (Homo sapiens) (UniProt P08908); test: h5HT1A Cerep panel; details: Compound concentration 10.0 uM
T2 sequence (whole entry): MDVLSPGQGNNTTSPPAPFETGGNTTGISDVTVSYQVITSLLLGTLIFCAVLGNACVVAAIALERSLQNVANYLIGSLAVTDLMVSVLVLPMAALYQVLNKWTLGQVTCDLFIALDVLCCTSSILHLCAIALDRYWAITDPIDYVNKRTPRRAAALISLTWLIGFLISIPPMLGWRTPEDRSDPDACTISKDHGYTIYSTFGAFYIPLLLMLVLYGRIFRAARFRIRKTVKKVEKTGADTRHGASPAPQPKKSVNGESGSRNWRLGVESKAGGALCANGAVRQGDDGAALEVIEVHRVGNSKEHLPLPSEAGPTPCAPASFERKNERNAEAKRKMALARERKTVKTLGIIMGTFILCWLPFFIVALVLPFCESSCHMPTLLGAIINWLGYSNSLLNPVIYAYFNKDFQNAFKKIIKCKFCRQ

[23] = target: Glycogen synthase kinase-3 beta (Homo sapiens) (UniProt P49841); test: glycogen synthase kinase 3 beta Millipore kinase panel; details: Compound concentration 10.0 uM
Sequence of Glycogen synthase kinase-3 beta (Homo sapiens) (P49841 whole entry, looked up): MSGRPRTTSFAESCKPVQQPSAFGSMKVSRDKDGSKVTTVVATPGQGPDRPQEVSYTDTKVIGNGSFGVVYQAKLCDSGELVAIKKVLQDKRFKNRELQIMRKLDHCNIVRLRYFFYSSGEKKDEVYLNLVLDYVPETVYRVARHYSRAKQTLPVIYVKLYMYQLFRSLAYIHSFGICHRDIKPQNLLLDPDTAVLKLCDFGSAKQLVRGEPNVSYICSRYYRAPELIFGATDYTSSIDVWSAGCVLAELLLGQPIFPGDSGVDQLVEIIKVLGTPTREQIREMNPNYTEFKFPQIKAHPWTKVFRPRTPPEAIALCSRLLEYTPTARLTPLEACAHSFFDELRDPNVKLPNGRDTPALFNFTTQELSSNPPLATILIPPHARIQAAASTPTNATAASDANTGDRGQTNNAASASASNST

[24] = target: Protein kinase C zeta type (Homo sapiens) (UniProt Q05513); test: protein kinase C, zeta Millipore kinase panel; details: Compound concentration 10.0 uM
[25] = target: Protein kinase C delta type (Homo sapiens) (UniProt Q05655); test: protein kinase C, delta Millipore kinase panel; details: Compound concentration 10.0 uM
[26] = target: Alpha-2A adrenergic receptor (Rattus norvegicus) (UniProt P22909); test: rAa2 Cerep panel; details: Compound concentration 10.0 uM
[27] = target: Dual specificity calcium/calmodulin-dependent 3',5'-cyclic nucleotide phosphodiesterase 1B (Homo sapiens, UniProt Q01064); test: hPDE1B1 PDE scan
[28] = target: Proto-oncogene tyrosine-protein kinase receptor Ret (Homo sapiens) (UniProt P07949); test: ret proto-oncogene Millipore kinase panel; details: Compound concentration 10.0 uM
[29] = target: 5-hydroxytryptamine receptor 2B (Homo sapiens, UniProt P41595); test: GPCRScan assay: inhibition of 5-HT2B; design: radioligand conc. used [nm] 1.0 – 2.0, parental cells stable HEK
Sequence of 5-hydroxytryptamine receptor 2B (P41595 whole entry): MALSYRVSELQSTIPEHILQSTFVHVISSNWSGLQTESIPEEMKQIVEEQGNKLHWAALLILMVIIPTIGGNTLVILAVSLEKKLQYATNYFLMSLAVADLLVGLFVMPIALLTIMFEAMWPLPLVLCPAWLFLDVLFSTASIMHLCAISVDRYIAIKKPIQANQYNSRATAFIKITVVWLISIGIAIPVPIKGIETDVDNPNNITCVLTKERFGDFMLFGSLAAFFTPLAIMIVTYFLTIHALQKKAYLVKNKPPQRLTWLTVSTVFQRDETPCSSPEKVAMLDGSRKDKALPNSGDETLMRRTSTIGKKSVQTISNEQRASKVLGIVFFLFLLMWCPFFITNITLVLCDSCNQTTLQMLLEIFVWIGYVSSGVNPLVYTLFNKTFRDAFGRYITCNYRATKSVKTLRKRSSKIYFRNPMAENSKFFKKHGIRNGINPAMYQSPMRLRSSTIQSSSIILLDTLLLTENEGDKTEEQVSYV

[30] = target: Tyrosine-protein kinase ZAP-70 (Homo sapiens) (UniProt P43403); test: zeta-chain associated protein kinase 70kDa Millipore kinase panel; details: Compound concentration 10.0 uM
Sequence of Tyrosine-protein kinase ZAP-70 (Homo sapiens) (P43403 whole entry): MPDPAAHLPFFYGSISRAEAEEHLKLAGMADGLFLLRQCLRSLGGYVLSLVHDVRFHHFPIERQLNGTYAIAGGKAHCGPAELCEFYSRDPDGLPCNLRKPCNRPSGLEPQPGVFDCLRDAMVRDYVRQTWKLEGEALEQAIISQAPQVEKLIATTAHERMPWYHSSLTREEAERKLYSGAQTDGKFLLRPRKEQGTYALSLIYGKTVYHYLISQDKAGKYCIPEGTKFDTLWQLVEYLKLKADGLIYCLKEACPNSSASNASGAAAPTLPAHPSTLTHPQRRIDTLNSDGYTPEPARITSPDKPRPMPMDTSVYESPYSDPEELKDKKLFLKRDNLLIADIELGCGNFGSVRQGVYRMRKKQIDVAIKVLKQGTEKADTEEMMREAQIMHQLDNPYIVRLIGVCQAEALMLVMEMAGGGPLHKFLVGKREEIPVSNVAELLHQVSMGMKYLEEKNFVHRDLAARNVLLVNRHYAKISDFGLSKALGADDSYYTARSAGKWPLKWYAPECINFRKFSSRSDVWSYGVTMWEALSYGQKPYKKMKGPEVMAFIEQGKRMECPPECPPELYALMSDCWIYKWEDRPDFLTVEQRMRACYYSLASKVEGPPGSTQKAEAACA

[31] = target: T3, 5-hydroxytryptamine receptor 2C (Homo sapiens) (UniProt P28335); test: h5HT2C Cerep panel; details: Compound concentration 10.0 uM
T3 sequence (whole entry): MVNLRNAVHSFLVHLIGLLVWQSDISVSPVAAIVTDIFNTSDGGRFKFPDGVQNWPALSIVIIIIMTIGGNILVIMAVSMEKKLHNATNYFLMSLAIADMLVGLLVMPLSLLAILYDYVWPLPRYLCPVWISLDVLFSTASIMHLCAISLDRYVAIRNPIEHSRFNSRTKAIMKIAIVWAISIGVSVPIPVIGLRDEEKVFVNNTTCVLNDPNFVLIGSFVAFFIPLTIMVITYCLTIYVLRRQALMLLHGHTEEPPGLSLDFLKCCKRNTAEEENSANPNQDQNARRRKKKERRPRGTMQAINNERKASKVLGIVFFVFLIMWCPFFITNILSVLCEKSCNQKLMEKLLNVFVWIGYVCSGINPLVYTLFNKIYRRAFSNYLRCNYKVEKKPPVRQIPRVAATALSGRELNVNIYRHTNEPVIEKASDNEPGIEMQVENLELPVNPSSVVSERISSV

[32] = target: MAP kinase-interacting serine/threonine-protein kinase 2 (Homo sapiens) (UniProt Q9HBH9); test: MAP kinase interacting serine/threonine kinase 2 Millipore kinase panel; details: Compound concentration 10.0 uM
[33] = target: Death-associated protein kinase 1 (Homo sapiens) (UniProt P53355); test: death-associated protein kinase 1 Millipore kinase panel; details: Compound concentration 10.0 uM
[34] = target: Protein kinase C theta type (Homo sapiens) (UniProt Q04759); test: protein kinase C, theta Millipore kinase panel; details: Compound concentration 10.0 uM
Homo sapiens = organism: Homo sapiens; test: protein kinase C, beta 2 Millipore kinase panel; details: Compound concentration 10.0 uM
[35] = target: Sodium-dependent dopamine transporter (Homo sapiens, UniProt Q01959); test: hDAT Cerep panel; details: Compound concentration 10.0 uM
[36] = target: Neuromedin-K receptor (Homo sapiens) (UniProt P29371); test: hNK3 Cerep panel; details: Compound concentration 10.0 uM
[37] = target: cAMP and cAMP-inhibited cGMP 3',5'-cyclic phosphodiesterase 10A (Homo sapiens, UniProt Q9Y233); test: SPA with human PDE10A

inhibition [1]: 2.32%
inhibition [2]: 1.22%
SMILES: c1ccc(C2CCN(c3cnc4c(N5CCOCC5)nccn34)CC2)cc1

SMILES: COCCc1ccc(-c2c(C)nc3c(N4CCOCC4)ccnn23)cn1 [JNJ-42396302]
effect (Rattus norvegicus): -5.55%
effect [3]: 27.3%
effect [4]: 2.15%
inhibition [5]: 2%
Increase in cAMP [6]: 2.3 fold
inhibition [7]: 4%
effect [8]: 6.2%
inhibition [9]: -6%
inhibition [10]: 18%
inhibition [11]: 5%
inhibition [12]: -1%
inhibition [13]: -2%
pKi [14]: 4.82
effect [15]: 5.55%
inhibition [16]: 9%
inhibition [17]: -2%
inhibition [18]: -5%
effect [19]: 2.15%
inhibition [20]: 6%
inhibition [21]: 3%
effect [22]: 8.65%
inhibition [23]: -1%
inhibition [24]: 5%
inhibition [25]: -2%
effect [26]: 5.2%
pKi [27]: 5.47
inhibition [28]: 5%
pKi ([29]; read-out: Ki): 5.64
Ki ([29]; read-out: pKi (converted)): 2240 nM
inhibition [30]: 4%
effect [31]: -1.95%
inhibition [32]: 10%
inhibition [33]: -2%
inhibition [34]: 2%
inhibition (Homo sapiens): 3%
effect [35]: 4.5%
effect [36]: -8.65%
Ki [37]: 13 nM (active)
